Article PMC4370629, “Structural and Functional Studies of Phosphoenolpyruvate Carboxykinase from Mycobacterium tuberculosis” (PLoS ONE, 2015)

Target: T1, Mtb Pck (Mycobacterium tuberculosis, UniProt P9WIH3)
T1 construct: gene pckG
Assay: biochemical

T1 sequence (P9WIH3 whole entry): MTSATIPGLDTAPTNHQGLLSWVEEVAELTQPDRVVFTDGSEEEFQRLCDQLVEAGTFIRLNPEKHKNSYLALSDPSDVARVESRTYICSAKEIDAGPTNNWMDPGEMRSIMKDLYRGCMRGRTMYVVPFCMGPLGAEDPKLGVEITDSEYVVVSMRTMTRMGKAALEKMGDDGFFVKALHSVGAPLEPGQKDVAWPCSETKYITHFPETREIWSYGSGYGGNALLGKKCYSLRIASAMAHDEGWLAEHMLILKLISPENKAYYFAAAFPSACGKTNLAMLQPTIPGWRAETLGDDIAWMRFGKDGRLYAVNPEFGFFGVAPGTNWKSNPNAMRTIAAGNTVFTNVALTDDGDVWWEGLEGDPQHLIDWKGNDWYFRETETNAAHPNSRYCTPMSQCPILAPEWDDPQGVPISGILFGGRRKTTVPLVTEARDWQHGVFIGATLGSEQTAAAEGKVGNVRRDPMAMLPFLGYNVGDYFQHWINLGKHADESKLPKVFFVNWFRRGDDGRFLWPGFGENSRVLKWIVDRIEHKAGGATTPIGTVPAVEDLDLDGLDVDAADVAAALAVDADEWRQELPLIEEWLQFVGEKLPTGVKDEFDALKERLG

Nc1nc2c(ncn2[C@@H]2O[C@H](COP(=O)(O)OP(=O)(O)OP(=O)(O)O)[C@@H](O)[C@H]2O)c(=O)[nH]1 [GTP]
Kd: 7.3 µM
